Target: H1047R PIK3CA enzyme (Homo sapiens, UniProt P42336, H1047R)
Experiment: ADP-Glo Biochemical PIK3CA Kinase Assay
Conditions: ADP-Glo biochemical PIK3CA kinase assay

H1047R PIK3CA enzyme, sequence (P42336 whole entry H1047R): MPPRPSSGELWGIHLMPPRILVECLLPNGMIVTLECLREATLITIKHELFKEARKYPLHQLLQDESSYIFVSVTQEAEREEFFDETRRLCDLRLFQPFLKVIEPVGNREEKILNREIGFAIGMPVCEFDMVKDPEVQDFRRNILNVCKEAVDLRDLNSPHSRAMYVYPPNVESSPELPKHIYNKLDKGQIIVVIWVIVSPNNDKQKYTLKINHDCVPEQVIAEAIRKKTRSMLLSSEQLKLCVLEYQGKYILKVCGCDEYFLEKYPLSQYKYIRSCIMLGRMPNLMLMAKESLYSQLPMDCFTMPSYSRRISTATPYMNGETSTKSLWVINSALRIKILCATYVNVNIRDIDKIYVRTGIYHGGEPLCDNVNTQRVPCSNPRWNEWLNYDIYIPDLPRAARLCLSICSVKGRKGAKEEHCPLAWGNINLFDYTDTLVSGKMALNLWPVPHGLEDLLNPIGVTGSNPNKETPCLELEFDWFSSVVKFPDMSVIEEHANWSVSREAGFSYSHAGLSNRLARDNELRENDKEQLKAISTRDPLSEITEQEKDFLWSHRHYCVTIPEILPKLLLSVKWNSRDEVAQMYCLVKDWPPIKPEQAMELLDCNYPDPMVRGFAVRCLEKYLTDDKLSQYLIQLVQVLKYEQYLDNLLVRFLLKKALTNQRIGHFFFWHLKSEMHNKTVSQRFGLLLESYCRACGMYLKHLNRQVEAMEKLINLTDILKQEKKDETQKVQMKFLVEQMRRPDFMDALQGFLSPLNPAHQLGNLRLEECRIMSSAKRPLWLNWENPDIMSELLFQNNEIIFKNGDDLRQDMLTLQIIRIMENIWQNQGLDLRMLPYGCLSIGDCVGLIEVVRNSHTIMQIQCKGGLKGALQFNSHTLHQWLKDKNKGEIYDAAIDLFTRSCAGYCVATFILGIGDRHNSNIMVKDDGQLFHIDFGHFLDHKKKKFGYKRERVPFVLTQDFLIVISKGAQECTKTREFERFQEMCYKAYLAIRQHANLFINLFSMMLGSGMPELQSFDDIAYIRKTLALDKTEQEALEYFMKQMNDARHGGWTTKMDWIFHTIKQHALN
H1047R PIK3CA enzyme, sequence (P27986 whole entry partner): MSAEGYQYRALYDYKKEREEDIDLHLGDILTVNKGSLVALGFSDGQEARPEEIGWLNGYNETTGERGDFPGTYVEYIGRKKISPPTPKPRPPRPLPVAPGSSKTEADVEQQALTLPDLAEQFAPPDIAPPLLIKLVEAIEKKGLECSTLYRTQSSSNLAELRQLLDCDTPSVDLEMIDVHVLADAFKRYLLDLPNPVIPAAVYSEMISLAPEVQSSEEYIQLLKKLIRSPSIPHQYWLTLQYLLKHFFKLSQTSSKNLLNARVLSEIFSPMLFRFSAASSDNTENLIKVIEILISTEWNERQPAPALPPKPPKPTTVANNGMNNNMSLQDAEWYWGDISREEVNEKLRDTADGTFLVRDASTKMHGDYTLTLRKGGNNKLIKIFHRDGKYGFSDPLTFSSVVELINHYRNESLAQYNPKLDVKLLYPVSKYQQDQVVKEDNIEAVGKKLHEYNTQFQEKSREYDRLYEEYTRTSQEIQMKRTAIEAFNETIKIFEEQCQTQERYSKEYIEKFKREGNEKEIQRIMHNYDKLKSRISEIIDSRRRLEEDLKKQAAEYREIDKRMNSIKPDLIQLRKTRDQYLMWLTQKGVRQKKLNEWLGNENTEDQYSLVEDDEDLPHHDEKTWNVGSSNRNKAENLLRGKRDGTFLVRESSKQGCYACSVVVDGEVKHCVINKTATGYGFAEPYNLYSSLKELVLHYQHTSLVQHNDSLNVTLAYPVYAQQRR

Row | Compound | IC50 [nM]
1 | Cc1ccccc1Nc1nnccc1NC(=O)c1csc2ccccc12 [I-553] | 1000 to 10000
2 | CNC(=O)c1cnc(Nc2ccccc2C)c(NC(=O)c2nc(Cl)cc3ccccc23)c1 [I-555] | 1000 to 10000
3 | CNC(=O)c1cnc(Nc2ccccc2C)c(NC(=O)c2cc(C)cc(C#N)c2)c1 [I-556] | 1000 to 10000
4 | CNC(=O)c1cnc(Nc2ccccc2C)c(NC(=O)Cc2cc3cccnc3cc2F)c1 [I-557] | 1000 to 10000
5 | CNC(=O)c1cnc(Nc2ccccc2C)c(NC(=O)Cc2ccc3ncccc3c2)c1 [I-558] | 1000 to 10000
6 | Cc1ccccc1Nc1ncc(C(=O)N[C@@H]2C3CCC(C3)[C@H]2C(=O)O)cc1NC(=O)c1csc2ccccc12 (stereo partly drawn) [I-559] | 1000 to 10000
7 | Cc1ccccc1Nc1ncc(C(=O)NCC2(O)CCCC2)cc1NC(=O)c1csc2ccccc12 [I-562] | 500 to 1000
8 | Cc1ccccc1Nc1ncc(C(=O)NCC(C)(C)O)cc1NC(=O)c1csc2ccccc12 [I-565] | 1000 to 10000
9 | CNC(=O)c1cnc(Nc2ccccc2C)c(NC(=O)c2cccc(F)c2Cl)c1 [I-566] | 1000 to 10000
10 | CNC(=O)c1cnc(Nc2ccccc2C)c(NC(=O)c2ccc(CO)c(F)c2)c1 [I-567] | 1000 to 10000
11 | Cc1ccccc1Nc1ncc(C(=O)NC2CCN(C)C2)cc1NC(=O)c1csc2ccccc12 (stereo not drawn) [I-574] | 1000 to 10000
12 | CNC(=O)c1cnc(Nc2ccccc2C)c(NC(=O)c2ccc3ncc(Br)n3c2)c1 [I-575] | 500 to 1000
13 | Cc1ccccc1Nc1ncc(C(=O)N2CC3(COC3)C2)cc1NC(=O)c1csc2ccccc12 [I-576] | 1000 to 10000
14 | CNC(=O)c1cnc(Nc2ccccc2C)c(NC(=O)c2cccc(COC)c2)c1 [I-577] | 1000 to 10000
15 | Cc1ccccc1Nc1ncc(C(=O)NCc2ncccn2)cc1NC(=O)c1csc2ccccc12 [I-586] | 500 to 1000
16 | CNC(=O)c1cnc(Nc2ccccc2C)c(NC(=O)Cc2cc(Cl)cc(C(F)(F)F)c2)c1 [I-587] | 1000 to 10000
17 | Cc1ccccc1Nc1ncc(C(=O)N2CCC(C)(O)C2)cc1NC(=O)c1csc2ccccc12 (stereo not drawn) [I-589] | 1000 to 10000
18 | CNC(=O)c1cnc(Nc2ccccc2C)c(NC(=O)Cc2cc(Br)ccc2Cl)c1 [I-595] | 1000 to 10000
19 | Cc1ccccc1Nc1ncc(C(=O)N2CC(C(=O)O)C2)cc1NC(=O)c1csc2ccccc12 [I-600] | 1000 to 10000
20 | Cc1ccccc1Nc1ncc(C(=O)Nc2ncnn2C)cc1NC(=O)c1csc2ccccc12 [I-606] | 1000 to 10000
21 | Cc1cc(CC(C)NC(=O)c2cnc(Nc3ccccc3C)c(NC(=O)c3csc4ccccc34)c2)on1 (stereo not drawn) [I-614] | 1000 to 10000
22 | COCC1CN(C(=O)c2cnc(Nc3ccccc3C)c(NC(=O)c3csc4ccccc34)c2)C1 [I-615] | 1000 to 10000
23 | Cc1ccccc1Nc1ncc(C(=O)N[C@H]2CC[C@]3(CCC(=O)N3)CC2)cc1NC(=O)c1csc2ccccc12 [I-617] | 1000 to 10000
24 | Cc1ccccc1Nc1ncc(C(=O)N2CC(C)(O)C2)cc1NC(=O)c1csc2ccccc12 [I-620] | 1000 to 10000
25 | Cc1ccccc1Nc1ncc(C(=O)N2CCC(F)C2)cc1NC(=O)c1csc2ccccc12 (stereo not drawn) [I-623] | 500 to 1000

Row | Compound | IC50 [nM]
26 | Cc1ccccc1Nc1ncc(C(=O)N2CC(CF)C2)cc1NC(=O)c1csc2ccccc12 [I-628] | 1000 to 10000
27 | Cc1ccccc1Nc1ncc(C(=O)O)cc1NC(=O)c1csc2ccccc12 [I-629] | 1000 to 10000
28 | Nc1cc(C(=O)NC2CS(=O)(=O)C2)cnc1N1CCOc2ccccc21 [I-630] | 1000 to 10000
29 | O=C(O)c1cnc(N2CCOc3ccccc32)c(NC(=O)c2csc3ccccc23)c1 [I-631] | 1000 to 10000
30 | Nc1cc(C(=O)O)cnc1N1CCOc2ccccc21 [I-632] | 1000 to 10000
31 | O=C(NC1CC(F)(F)C1)c1cnc(Nc2ccccc2Cl)c(NC(=O)c2csc3ccccc23)c1 [I-641] | 1000 to 10000
32 | CNC(=O)c1cnc(Nc2ccccc2C)c(NC(=O)c2nc3cccc(C(F)(F)F)n3n2)c1 [I-642] | 1000 to 10000
33 | CNC(=O)c1cnc(Nc2ccccc2C)c(NC(=O)CCc2ccncc2C)c1 [I-643] | 1000 to 10000
34 | CNC(=O)c1cnc(Nc2ccccc2C)c(NC(=O)c2onc3ccccc23)c1 [I-644] | 1000 to 10000
35 | CNC(=O)c1cnc(Nc2ccccc2C)c(NC(=O)c2ccc3cnccc3n2)c1 [I-645] | 1000 to 10000
36 | CNC(=O)c1cnc(Nc2ccccc2C)c(NC(=O)Cn2ccccc2=O)c1 [I-646] | 1000 to 10000
37 | CNC(=O)c1cnc(Nc2ccccc2C)c(NC(=O)c2ccn3ccnc3c2)c1 [I-647] | 1000 to 10000
38 | CNC(=O)c1cnc(Nc2ccccc2C)c(NC(=O)c2ccc3cnccc3c2)c1 [I-648] | 1000 to 10000
39 | CNC(=O)c1cnc(Nc2ccccc2C)c(NC(=O)C2CCc3ccccc3O2)c1 (stereo not drawn) [I-649] | 1000 to 10000
40 | CNC(=O)c1cnc(Nc2ccccc2C)c(NC(=O)c2ccnc(C(F)F)c2)c1 [I-650] | 1000 to 10000
41 | CNC(=O)c1cnc(Nc2ccccc2C)c(NC(=O)Cc2noc3ccccc23)c1 [I-651] | 1000 to 10000
42 | CNC(=O)c1cnc(Nc2ccccc2C)c(NC(=O)c2noc3ccccc23)c1 [I-671] | 1000 to 10000
43 | Nc1ncc(C(=O)O)cc1NC(=O)c1csc2ccccc12 [I-673] | 1000 to 10000
44 | COC(=O)c1cnc(N)c(NC(=O)c2csc3ccccc23)c1 [I-674] | 1000 to 10000
45 | Nc1ncc(C(=O)NC2CC(F)(F)C2)cc1NC(=O)c1csc2ccccc12 [I-675] | 1000 to 10000
46 | Nc1ncc(C(=O)N[C@H]2C[C@@H](C(N)=O)C2)cc1NC(=O)c1csc2ccccc12 [I-689] | 1000 to 10000
47 | CC(NC(=O)c1cnc(N)c(NC(=O)c2csc3ccccc23)c1)c1cn[nH]c1 (stereo not drawn) [I-690] | 1000 to 10000
48 | Cc1ccccc1Nc1ncc(C(=O)N[C@H]2C[C@@H](C(=O)N(C)C)C2)cc1NC(=O)c1csc2ccccc12 [I-694] | 1000 to 10000
49 | Cc1ccccc1Nc1ncc(C(=O)NCc2ccc(Cl)cc2)cc1NC(=O)c1cc(F)cc(C(F)(F)F)c1 [I-702] | 500 to 1000
50 | COc1cncc(CNC(=O)c2cnc(Nc3ccccc3C)c(NC(=O)c3cc(F)cc(C(F)(F)F)c3)c2)c1 [I-707] | 1000 to 10000

Other lines, results leading:

Row | IC50 [nM] | Compound
51 | 500 to 1000 | CNC(=O)c1cnc(Nc2ccccc2C)c(NC(=O)c2ccc(C#N)c(C(F)(F)F)c2)c1 [I-710]
52 | 500 to 1000 | CNC(=O)c1cnc(Nc2ccccc2C)c(NC(=O)c2cc(F)c(C(F)(F)F)c(F)c2)c1 [I-717]
53 | 1000 to 10000 | Cc1ccccc1Nc1ncc(C(=O)NCc2ncccn2)cc1NC(=O)c1cc(F)cc(C(F)(F)F)c1 [I-719]
54 | 1000 to 10000 | COc1ccnc(CNC(=O)c2cnc(Nc3ccccc3C)c(NC(=O)c3cc(F)cc(C(F)(F)F)c3)c2)c1 [I-720]
55 | 1000 to 10000 | CNC(=O)c1cnc(Nc2ccccc2C)c(NC(=O)c2ccc(F)c(F)c2)c1 [I-722]
56 | 1000 to 10000 | CNC(=O)c1cnc(Nc2ccccc2C)c(NC(=O)c2ccc(C)c(F)c2)c1 [I-723]
57 | 1000 to 10000 | COC(=O)CCS(=O)(=O)c1cnc(Nc2ccccc2C)c(NC(=O)c2cc(F)cc(C(F)(F)F)c2)c1 [I-728]
58 | 1000 to 10000 | CNC(=O)c1cnc(Nc2nccc3[nH]ccc23)c(NC(=O)c2csc3ccccc23)c1 [I-729]
59 | 1000 to 10000 | CNC(=O)c1cnc(Nc2cnccc2C)c(NC(=O)c2csc3ccccc23)c1 [I-730]
60 | 1000 to 10000 | CNC(=O)c1cnc(Nc2ncccc2C(C)C)c(NC(=O)c2csc3ccccc23)c1 [I-731]
61 | 1000 to 10000 | CNC(=O)c1cnc(Nc2c3c(nn2C)CCCC3)c(NC(=O)c2csc3ccccc23)c1 [I-732]
62 | 1000 to 10000 | CNC(=O)c1cnc(Nc2ccc3c(c2)COC3)c(NC(=O)c2csc3ccccc23)c1 [I-733]
63 | 1000 to 10000 | CCc1nccnc1Nc1ncc(C(=O)NC)cc1NC(=O)c1csc2ccccc12 [I-734]
64 | 1000 to 10000 | CCn1nccc1Nc1ncc(C(=O)NC)cc1NC(=O)c1csc2ccccc12 [I-735]
65 | 1000 to 10000 | CNC(=O)c1cnc(Nc2ccc3cnn(C)c3c2)c(NC(=O)c2csc3ccccc23)c1 [I-736]
66 | 1000 to 10000 | CNC(=O)c1cnc(Nc2ccnc3c2ccn3C)c(NC(=O)c2csc3ccccc23)c1 [I-737]
67 | 1000 to 10000 | CNC(=O)c1cnc(Nc2ccc3c(c2)OCC3)c(NC(=O)c2csc3ccccc23)c1 [I-738]
68 | 1000 to 10000 | CNC(=O)c1cnc(Nc2cncc(F)c2)c(NC(=O)c2csc3ccccc23)c1 [I-739]
69 | 1000 to 10000 | CNC(=O)c1cnc(Nc2ccc3cccnc3c2)c(NC(=O)c2csc3ccccc23)c1 [I-740]

Row | IC50 [nM] | Compound
70 | 1000 to 10000 | CNC(=O)c1cnc(Nc2cncc3ccccc23)c(NC(=O)c2csc3ccccc23)c1 [I-741]
71 | 1000 to 10000 | CNC(=O)c1cnc(Nc2ncccc2C2CC2)c(NC(=O)c2csc3ccccc23)c1 [I-742]
72 | 1000 to 10000 | CNC(=O)c1cnc(Nc2c3c(nn2C)CCC3)c(NC(=O)c2csc3ccccc23)c1 [I-743]
73 | 1000 to 10000 | CNC(=O)c1cnc(Nc2ccc3c(c2)N(C)C(=O)CO3)c(NC(=O)c2csc3ccccc23)c1 [I-744]
74 | 1000 to 10000 | Cc1ccccc1Nc1ncc(C(=O)NCc2cn(C)nc2C)cc1NC(=O)c1cc(F)cc(C(F)(F)F)c1 [I-746]
75 | 1000 to 10000 | Cc1ccccc1Nc1ncc(C(=O)NCc2nnc3ccccn23)cc1NC(=O)c1cc(F)cc(C(F)(F)F)c1 [I-759]
76 | 500 to 1000 | CNC(=O)c1cnc(Nc2ccccc2C)c(NC(=O)c2cc(Cl)nc(C(F)(F)F)c2)c1 [I-762]
77 | 500 to 1000 | CNC(=O)c1cnc(Nc2ccccc2C)c(NC(=O)c2coc3c(F)cc(Cl)cc23)c1 [I-766]
78 | 1000 to 10000 | Cc1ccccc1Nc1ncc(-c2ccn[nH]2)cc1NC(=O)c1cc(F)cc(C(F)(F)F)c1 [I-767]
79 | 500 to 1000 | CNC(=O)c1cnc(Nc2cccc3[nH]ccc23)c(NC(=O)c2csc3ccccc23)c1 [I-768]
80 | 1000 to 10000 | Cc1ccccc1Nc1cc(=O)n(CCc2ccncn2)cc1NC(=O)c1csc2ccccc12 [I-769]
81 | 1000 to 10000 | CC1COCCN1c1ncc(C(=O)N[C@H]2C[C@@H](C(N)=O)C2)cc1NC(=O)c1csc2ccccc12 (stereo partly drawn) [I-770]
82 | 1000 to 10000 | COC1CN(c2ncc(C(=O)N[C@H]3C[C@@H](C(C)=O)C3)cc2NC(=O)c2csc3ccccc23)C1 [I-771]
83 | 1000 to 10000 | CNC(=O)c1cnc(Nc2cc(F)ccc2Cl)c(NC(=O)c2csc3ccccc23)c1 [I-775]
84 | 1000 to 10000 | CNC(=O)c1cnc(Nc2ccccc2C)c(N(CC(N)=O)C(=O)c2csc3ccccc23)c1 [I-776]
85 | 10000 to 100000 | COc1cncc(CNC(=O)c2cc(NC(=O)c3csc4ccccc34)n(CC3CCC3)c(=O)c2)c1 [I-777]
86 | 10000 to 100000 | Nc1c2c(nn1C(=O)c1cc(F)cc(C(F)(F)F)c1)CCCC2 [I-778]
87 | 1000 to 10000 | Cc1nn(C(=O)c2cc(F)cc(C(F)(F)F)c2)c(N)c1-c1ccccc1 [I-779]
